The nature of data set [1]: Aqueous solubility of the compound in PBS at pH 7.4 at 2 mg incubated for 24 hrs by HPLC-UV analysis. Format: physicochemical.
The nature of data set [2]: Aqueous solubility of the compound in PBS at pH 2 at 2 mg incubated for 24 hrs by HPLC-UV analysis. Format: physicochemical.
Data set [3] is described as follows: Aqueous solubility of the compound in PBS at pH 7 at 2 mg incubated for 24 hrs by HPLC-UV analysis. Format: physicochemical.
Data set [4] is described as follows: Oral bioavailability in Sprague-Dawley rat. Format: ADME, organism-based. The note with it: in vivo.
Data set [5] concerns the target Keap1/Nrf2 (Homo sapiens) (UniProt Q16236+Q14145). In words: Binding affinity to human Keap1-Nrf2 protein-protein interaction assessed as dissociation constant (Kd2) incubated for 60 mins by fluorescent polarization assay.
Data set [6] deals with Peritoneal macrophage. The experiment in a line: Antiinflammatory activity in mouse peritoneal macrophages assessed as reduction in LPS-induced IL6 level at 10 uM incubated for 4 hrs by ELISA method. Format: functional, cell-based. For orientation: In an ELISA, binding on a coated surface is turned into a signal by an enzyme label.
For data set [7], the system named is Mus musculus. The experiment in a line: Antiinflammatory activity in LPS-induced C57BL/6 mouse model of […] assessed as reduction in bleeding points in lung tissue at 2.5 to 10 mg/kg, ip pretreated with compound for 30 mins followed by LPS stimulation and measured after 6 hrs by hematoxylin and eosin staining method. Particulars: dose 2.5-10 mg/kg, time 390.0 min. It counts as functional, organism-based.

The subject of data set [8] is Mus musculus. The experiment in a line: Antiinflammatory activity in LPS-induced C57BL/6 mouse model of […] assessed as inhibition of IL6 expression in lung tissue at 2.5 to 10 mg/kg, ip pretreated with compound for 30 mins followed by LPS stimulation and measured after 6 hrs by qRT-PCR analysis. It counts as functional, organism-based. Particulars: dose 2.5-10 mg/kg, time 390.0 min. (In qPCR the cycle at which signal appears reflects the starting amount.)

Data set [9] has as its system Mus musculus. In words: Antiinflammatory activity in LPS-induced C57BL/6 mouse model of […] assessed as inhibition of IL6 level in BALF administered intraperitoneally pretreated with compound for 30 mins followed by LPS stimulation and measured after 6 hrs by ELISA method. Format: functional, organism-based. The note with it: dose 2.5-10 mg/kg, route ip, time 390.0 min.

Data set [10] deals with Mus musculus. The experiment in a line: Antiinflammatory activity in LPS-induced C57BL/6 mouse model of […] assessed as reduction in congestion in lung tissue at 2.5 to 10 mg/kg, ip pretreated with compound for 30 mins followed by LPS stimulation and measured after 6 hrs by hematoxylin and eosin staining method. It counts as functional, organism-based. Particulars: dose 2.5-10 mg/kg, time 390.0 min.

For data set [11], the system named is Mus musculus. In words: Antiinflammatory activity in LPS-induced C57BL/6 mouse model of […] assessed as inhibition of IL1beta expression in lung tissue at 2.5 to 10 mg/kg, ip pretreated with compound for 30 mins followed by LPS stimulation and measured after 6 hrs by qRT-PCR analysis. Format: functional, organism-based. The note with it: dose 2.5-10 mg/kg, time 390.0 min.

Data set [12] has as its system Mus musculus. In words: Antiinflammatory activity in LPS-induced C57BL/6 mouse model of […] assessed as inhibition of TNFalpha expression in lung tissue at 2.5 to 10 mg/kg, ip pretreated with compound for 30 mins followed by LPS stimulation and measured after 6 hrs by qRT-PCR analysis. Particulars: dose 2.5-10 mg/kg, time 390.0 min. Format: functional, organism-based.

Data set [13] deals with Mus musculus. In words: Antiinflammatory activity in LPS-induced C57BL/6 mouse model of […] assessed as inhibition of IL1beta level in BALF administered intraperitoneally pretreated with compound for 30 mins followed by LPS stimulation and measured after 6 hrs by ELISA method. Format: functional, organism-based. The note with it: dose 2.5-10 mg/kg, route ip, time 390.0 min.

For data set [14], the system named is Mus musculus. The experiment in a line: Antiinflammatory activity in LPS-induced C57BL/6 mouse model of […] assessed as inhibition of TNFalpha level in BALF administered intraperitoneally pretreated with compound for 30 mins followed by LPS stimulation and measured after 6 hrs by ELISA method. Format: functional, organism-based. Particulars: dose 2.5-10 mg/kg, route ip, time 390.0 min.

In data set [15] the test system is Mus musculus. The experiment in a line: Antiinflammatory activity in LPS-induced C57BL/6 mouse model of […] assessed as reduction in inflammatory cell infiltrations in lung tissue at 2.5 to 10 mg/kg, ip pretreated with compound for 30 mins followed by LPS stimulation and measured after 6 hrs by hematoxylin and eosin staining method. The note with it: dose 2.5-10 mg/kg, time 390.0 min. Format: functional, organism-based.

Data set [16] relates to Mus musculus. In words: Antiinflammatory activity in LPS-induced C57BL/6 mouse model of […] assessed as Nrf2 nuclear translocation in lung tissue at 2.5 to 10 mg/kg, ip pretreated with compound for 30 mins followed by LPS stimulation and measured after 6 hrs by Western blotting analysis. It counts as functional, organism-based. Particulars: dose 2.5-10 mg/kg, time 390.0 min. In general terms: In western blotting, separated proteins are transferred to a membrane and probed.

Data set [17] can be described thus: Cmax in Sprague-Dawley rat at 20 mg/kg, ip. The arrangement: dose 20 mg/kg, route ip. It counts as ADME, organism-based. Particulars: in vivo.
Data set [18] can be described thus: Apparent volume of distribution in Sprague-Dawley rat at 20 mg/kg, ip. Format: ADME, organism-based. Particulars: in vivo.
The nature of data set [19]: AUC (0 to infinity) in Sprague-Dawley rat at 20 mg/kg, ip. Format: ADME, organism-based. The arrangement: dose 20 mg/kg, route ip. The note with it: in vivo.
Data set [20] is described as follows: AUC (0 to 24 hrs) in Sprague-Dawley rat at 20 mg/kg, ip. Further details: dose 20 mg/kg, route ip. Particulars: in vivo. It counts as ADME, organism-based.
Data set [21] has as its system Peritoneal macrophage. The experiment in a line: Antiinflammatory activity in mouse peritoneal macrophages assessed as fold reduction in LPS-induced TNFalpha level at 10 uM incubated for 4 hrs by ELISA method. Format: functional.
Data set [22] in a line: MRT (0 to infinity) in Sprague-Dawley rat at 5 mg/kg, iv. The note with it: in vivo. It counts as ADME, organism-based.
The nature of data set [23]: AUC (0 to infinity) in Sprague-Dawley rat at 5 mg/kg, iv. Format: ADME, organism-based. Further details: dose 5 mg/kg, route iv. Particulars: in vivo.
Data set [24] is described as follows: Half life in Sprague-Dawley rat at 20 mg/kg, ip. It counts as ADME, organism-based. The note with it: in vivo.
Data set [25] is described as follows: Cytotoxicity against mouse peritoneal macrophages assessed as reduction in cell viability incubated for 24 hrs by Cell titer-blue assay. It counts as toxicity, cell-based, Peritoneal macrophage.
Data set [26] can be described thus: MRT (0 to 24 hrs) in Sprague-Dawley rat at 5 mg/kg, iv. It counts as ADME, organism-based. The note with it: in vivo.
Data set [27] in a line: Half life in Sprague-Dawley rat at 5 mg/kg, iv. It counts as ADME, organism-based. Particulars: in vivo.
Data set [28] can be described thus: Clearance in Sprague-Dawley rat at 5 mg/kg, iv. The note with it: in vivo. Format: ADME, organism-based.
Data set [29] can be described thus: Clearance in Sprague-Dawley rat at 20 mg/kg, ip. Format: ADME, organism-based. The note with it: in vivo.
Data set [30] can be described thus: MRT (0 to 24 hrs) in Sprague-Dawley rat at 20 mg/kg, ip. Format: ADME, organism-based. The note with it: in vivo.
Data set [31] is described as follows: AUC (0 to 24 hrs) in Sprague-Dawley rat at 5 mg/kg, iv. It counts as ADME, organism-based. Further details: dose 5 mg/kg, route iv. Particulars: in vivo.
Data set [32] can be described thus: MRT (0 to infinity) in Sprague-Dawley rat at 20 mg/kg, ip. It counts as ADME, organism-based. Particulars: in vivo.
Data set [33] is described as follows: Apparent volume of distribution in Sprague-Dawley rat at 5 mg/kg, iv. Format: ADME, organism-based. The note with it: in vivo, read-out: Vz.
Data set [34] in a line: Tmax in Sprague-Dawley rat at 20 mg/kg, ip. It counts as ADME, organism-based. Particulars: in vivo.

≈ marks a conversion by molar mass, not a printed value. Calls of active or inactive are those of the source.

Chain of Keap1/Nrf2 (Homo sapiens) (Q14145 whole entry, looked up): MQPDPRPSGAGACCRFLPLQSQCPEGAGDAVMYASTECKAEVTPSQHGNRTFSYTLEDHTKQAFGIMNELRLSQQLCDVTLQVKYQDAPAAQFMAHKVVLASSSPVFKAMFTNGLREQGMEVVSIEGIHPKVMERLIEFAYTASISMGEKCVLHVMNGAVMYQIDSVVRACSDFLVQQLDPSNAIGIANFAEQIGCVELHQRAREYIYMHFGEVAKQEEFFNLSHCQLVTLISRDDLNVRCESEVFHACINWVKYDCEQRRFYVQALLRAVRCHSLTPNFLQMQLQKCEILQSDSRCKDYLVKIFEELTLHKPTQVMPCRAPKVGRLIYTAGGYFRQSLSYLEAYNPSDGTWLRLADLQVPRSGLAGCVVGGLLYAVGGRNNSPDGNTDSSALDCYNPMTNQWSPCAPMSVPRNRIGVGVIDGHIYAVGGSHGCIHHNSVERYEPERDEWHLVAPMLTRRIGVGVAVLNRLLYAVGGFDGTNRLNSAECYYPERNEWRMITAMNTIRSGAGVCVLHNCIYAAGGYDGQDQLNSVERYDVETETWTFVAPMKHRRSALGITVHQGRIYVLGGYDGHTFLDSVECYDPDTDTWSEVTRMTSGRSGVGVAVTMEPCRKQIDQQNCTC
Chain of Keap1/Nrf2 (Homo sapiens) (Q16236 whole entry, looked up): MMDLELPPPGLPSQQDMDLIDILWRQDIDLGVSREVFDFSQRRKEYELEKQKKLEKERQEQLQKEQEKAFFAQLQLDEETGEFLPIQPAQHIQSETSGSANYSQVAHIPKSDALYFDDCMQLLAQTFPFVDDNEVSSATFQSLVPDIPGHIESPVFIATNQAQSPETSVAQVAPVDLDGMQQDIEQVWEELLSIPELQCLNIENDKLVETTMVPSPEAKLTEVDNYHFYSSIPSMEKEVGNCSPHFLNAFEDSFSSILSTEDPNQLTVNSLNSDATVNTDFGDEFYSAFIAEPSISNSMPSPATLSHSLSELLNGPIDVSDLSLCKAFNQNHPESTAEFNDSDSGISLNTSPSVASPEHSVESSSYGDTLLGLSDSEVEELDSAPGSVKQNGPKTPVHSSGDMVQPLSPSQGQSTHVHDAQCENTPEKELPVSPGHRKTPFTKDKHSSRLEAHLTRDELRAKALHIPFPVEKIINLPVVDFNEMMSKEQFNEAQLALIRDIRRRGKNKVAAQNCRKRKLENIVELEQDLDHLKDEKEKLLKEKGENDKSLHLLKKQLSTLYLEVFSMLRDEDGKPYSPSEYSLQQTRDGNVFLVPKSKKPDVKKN

As usually defined, the solubility is the dissolved amount per volume that the medium holds. The low end stands for a poorly soluble substance, the high end for a readily soluble substance. As to `COc1ccc(S(=O)(=O)N(CC(N)=O)c2ccc(N(CC(N)=O)S(=O)(=O)c3ccc(NC(=O)[C@H]4CCN4)cc3)c3ccccc23)cc1.O=C(O)/C=C\C(=O)O`, the solubility at 24 h in [1] is 34.7 µg/mL; in data set [2], 46.3 µg/mL; in [3] it was 32.3 µg/mL.

Take `COc1ccc(S(=O)(=O)N(CC(N)=O)c2ccc(N(CC(N)=O)S(=O)(=O)c3ccc(NC(=O)[C@H]4CCN4)cc3)c3ccccc23)cc1.O=C(O)C(F)(F)F`: the solubility at 24 h in [1] came to 275 µg/mL; in [2], 423 µg/mL; in data set [3], 292 µg/mL.

For `COc1ccc(S(=O)(=O)N(CC(N)=O)c2ccc(N(CC(N)=O)S(=O)(=O)c3ccc(NC(=O)[C@H]4CCN4)cc3)c3ccccc23)cc1.Cl`, the solubility at 24 h was 283 µg/mL in [1], 1170 µg/mL in data set [2] and 484 µg/mL in data set [3].

Consider `CC(=O)O.COc1ccc(S(=O)(=O)N(CC(N)=O)c2ccc(N(CC(N)=O)S(=O)(=O)c3ccc(NC(=O)[C@H]4CCN4)cc3)c3ccccc23)cc1`, for which the solubility at 24 h in [1] amounted to 160 µg/mL; in [2], 311 µg/mL; in data set [3], 162 µg/mL.

The bioavailability is dose-corrected exposure relative to a reference, in per cent. Higher therefore signals much systemic uptake. `CCN1CCN(CCC(=O)Nc2ccc(S(=O)(=O)N(CC(N)=O)c3ccc(N(CC(N)=O)S(=O)(=O)c4ccc(OC)cc4)c4ccccc34)cc2)CC1.Cl` came in with a bioavailability in data set [4] of 20%.

With `Br.COc1ccc(S(=O)(=O)N(CC(N)=O)c2ccc(N(CC(N)=O)S(=O)(=O)c3ccc(NC(=O)[C@H]4CCN4)cc3)c3ccccc23)cc1`, the solubility at 24 h was 137 µg/mL in [1], 672 µg/mL in [2] and 256 µg/mL in data set [3].

Consider `COc1ccc(S(=O)(=O)N(CC(N)=O)c2ccc(N(CC(N)=O)S(=O)(=O)c3ccc(NC(=O)[C@H]4CCN4)cc3)c3ccccc23)cc1.O=C(O)CCC(=O)O`, for which the figures for the solubility at 24 h in [1], in [2] and in [3] were 65.6 µg/mL, 145 µg/mL and 60.6 µg/mL, respectively.

`COc1ccc(S(=O)(=O)N(CC(N)=O)c2ccc(N(CC(N)=O)S(=O)(=O)c3ccc(NC(=O)[C@H]4CCN4)cc3)c3ccccc23)cc1` [listing 1 of 2 here]: in data set [5], the K was 220 nM. For the same compound, the result with Peritoneal macrophage [6], with Mus musculus [7], in the data set on Mus musculus [10], in the data set with Mus musculus [15] and in the data set on Mus musculus [16] was Active. Further, the inhibition entry in the data set with Mus musculus [8], in the data set with Mus musculus [11] and with Mus musculus [12] was “Active” in each case. Also, the inhibition result in the data set with Mus musculus [9], in the data set with Mus musculus [13] and with Mus musculus [14] was “Dose-Dependent Effect” in each case.

The Cmax is the highest concentration seen after dosing. What is called AUC(0-inf) is the area under the concentration-time curve extrapolated to infinity. Lower therefore signals less exposure. As usually defined, the AUC(0-t) is exposure summed from dosing to a finite time, without extrapolation to infinity. Higher therefore signals high exposure. The term MRT inf denotes the average time that molecules of a dose stay in the body. Broadly, the half-life is the time needed for the level to fall by half in the phase considered. By CC50 is commonly meant the concentration that lowers cell viability or growth by half. What is called MRT last is a mean duration of stay, worked out from the concentration-time curve. As a reminder, the clearance is the rate of elimination divided by the concentration. A higher clearance goes with efficient removal. Usually CL/F stands for clearance divided by bioavailability, as obtained after extravascular dosing. A word on the Tmax: it is the time from dosing to the highest level. With `COc1ccc(S(=O)(=O)N(CC(N)=O)c2ccc(N(CC(N)=O)S(=O)(=O)c3ccc(NC(=O)[C@H]4CCN4)cc3)c3ccccc23)cc1` [listing 2 of 2 here], the concentration in data set [17] peaked (Cmax) at 8430 ng/mL. In data set [18], the Vz came to 16.24474 L/kg. The AUC(0-inf) in data set [19] came to 11200 ng·h/mL; in data set [23], 1590 ng·h/mL. Further, the values for the area under the curve AUC(0-t) in data set [20] and in data set [31] were 11200 ng·h/mL and 1390 ng·h/mL, respectively. In addition, the “fold change (FC)” value in the data set on Peritoneal macrophage [21] is given as “<=0.5”. Moreover, the mean residence time MRT inf in data set [22] is 9.67 h; in data set [32] it was 1.97 h. The values for the half-life in data set [24] and in [27] were 5.75 h and 12.7 h, respectively. In addition, the CC50 at 24 h in data set [25] was over 100 µM. In addition, the mean residence time MRT last in data set [26] turned out to be 2.83 h; in data set [30], 1.75 h. In addition, in [28], the clearance is 57.4 mL/min/kg. In data set [29], this compound gave a CL/F of 31.8 mL/min/kg. Also, the solubility at 24 h came to 216 µg/mL (≈ 318 µM) in data set [1], 601 µg/mL (≈ 883 µM) in data set [2] and 404 µg/mL (≈ 593 µM) in data set [3]. Also, the Vd in data set [33] was 60.5 L/kg. The Tmax in data set [34] came to 0.38 h.

Source of the values: ChEMBL document CHEMBL5338809, “Fragment-Based Discovery of Azocyclic Alkyl Naphthalenesulfonamides as Keap1-Nrf2 Inhibitors for Acute Lung Injury Treatment” (J Med Chem, 2023).
